# pIC50: −log10 of the molar value.
# Test: Inhibition of MDC-induced chemotaxis in L1.2 cells expressing CCR4
smiles,measurement,value
"CCN(CC)C(C)CCCNc1nccc(NCc2ccc(Cl)cc2Cl)n1 (stereo unspecified) [N4-(2,4-dichlorobenzyl)-N2-(4-(diethylamino)pentyl)pyrimidine-2,4-diamine]",pIC50,5.30

# — BindingDB's records for doi:10.1016/j.bmcl.2006.10.091 (Bristol Myers Squibb, 2007)
